According to patent US7855292B2, “Sulfonamide compounds” (Janssen Pharmaceutica NV, priority 2004, dated 2010):

Key:
CCK-1 receptor = biological target: T1, CCK-1 receptor (Homo sapiens, UniProt P32238); assay: CCK1 binding assay ([125I]-BH-CCK-8S displacement, CHO-K1 membranes); conditions: membranes of CHO-K1 cells stably transfected with the CCK-1 receptor, 20 pM [125I]-BH-CCK-8S, 0.3 μM PD-134,308 present, 60 min at 21±3° C.; for Ki: read-out: CCK1 pKi (converted)
T1 construct: expressed in transfected cells; host or cells: CHO-K1
T1 sequence (P32238 1-428): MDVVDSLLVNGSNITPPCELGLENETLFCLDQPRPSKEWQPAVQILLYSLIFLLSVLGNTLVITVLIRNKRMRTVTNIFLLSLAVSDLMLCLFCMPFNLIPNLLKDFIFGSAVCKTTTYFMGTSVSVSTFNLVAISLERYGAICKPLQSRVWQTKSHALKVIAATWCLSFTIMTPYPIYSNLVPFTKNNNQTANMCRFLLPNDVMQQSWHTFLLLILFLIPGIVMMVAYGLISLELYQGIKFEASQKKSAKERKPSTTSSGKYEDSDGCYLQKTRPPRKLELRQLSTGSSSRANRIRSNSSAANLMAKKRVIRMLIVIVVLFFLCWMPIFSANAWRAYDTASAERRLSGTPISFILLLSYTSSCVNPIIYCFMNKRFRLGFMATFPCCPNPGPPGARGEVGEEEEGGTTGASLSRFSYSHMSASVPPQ
Method in brief: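 Membranes from CHO-K1 cells stably expressing CCK-1 incubated 1 h at 21±3° C with 20 pM [125I]-BH-CCK-8S in HEPES buffer pH 7.2 containing 0.3 μM PD-134,308 to block CCK-2. Bound radioactivity read by gamma counting after filtration. pKi derived via Cheng-Prusoff, with specific binding defined using 2-NAP.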

CCK2 receptor = biological target: T2, CCK2 receptor (Homo sapiens, UniProt P32239); assay: CCK2 binding assay ([125I]-BH-CCK-8S displacement, HEKZFP membranes); conditions: membranes of doxycycline-induced HEKZFP cells, 20 pM [125I]-BH-CCK-8S, 60 min at 21±3° C.; for Ki: read-out: CCK2 pKi (converted)
T2 construct: analyzed for ZFP expression as well as CCK2R induction upon addition of doxycycline to the culture medium; endogenous in cells
T2 sequence (P32239 1-447): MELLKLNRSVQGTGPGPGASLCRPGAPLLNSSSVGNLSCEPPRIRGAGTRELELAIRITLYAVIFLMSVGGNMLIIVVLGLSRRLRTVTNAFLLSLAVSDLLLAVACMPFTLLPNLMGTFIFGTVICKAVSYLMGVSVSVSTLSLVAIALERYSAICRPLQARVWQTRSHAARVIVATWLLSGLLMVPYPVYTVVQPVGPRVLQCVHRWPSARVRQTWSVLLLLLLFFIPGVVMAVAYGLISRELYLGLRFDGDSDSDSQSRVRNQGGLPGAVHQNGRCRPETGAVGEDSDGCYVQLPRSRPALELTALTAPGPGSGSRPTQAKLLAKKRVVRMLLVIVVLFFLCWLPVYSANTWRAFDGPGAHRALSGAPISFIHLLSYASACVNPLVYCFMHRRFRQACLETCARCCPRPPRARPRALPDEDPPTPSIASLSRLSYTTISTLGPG

SMILES	Ki (CCK-1 receptor) [nM]	Ki (CCK2 receptor) [nM]	CCK1 pKi (CCK-1 receptor)	CCK2 pKi (CCK2 receptor)
O=C(N[C@@H](Cc1ccc(Cl)cc1)C(=O)O)c1ccc(I)cc1NS(=O)(=O)c1cccc2nccnc12 [Example 90, (S)-3-(4-Chloro-phenyl)-2-[4-iodo-2-(quinoxaline-5-sulfonylamino)-benzoylamino]-propionic acid]	1260	31.6	–	–
O=C(N[C@@H](Cc1ccc(Cl)c(Br)c1)C(=O)O)c1ccc(I)cc1NS(=O)(=O)c1cccc2nsnc12 [Example 91, (S)-2-[2-(Benzo[1,2,5]thiadiazole-4-sulfonylamino)-4-iodo-benzoylamino]-3-(3-bromo-4-chloro-phenyl)-propionic acid]	79.4	15.8	–	–
O=C(N[C@@H](Cc1ccc(Cl)c(I)c1)C(=O)O)c1ccc(I)cc1NS(=O)(=O)c1cccc2nsnc12 [Example 92, (S)-2-[2-(Benzo[1,2,5]thiadiazole-4-sulfonylamino)-4-iodo-benzoylamino]-3-(4-chloro-3-iodo-phenyl)-propionic acid]	63.1	31.6	–	–
O=C(N[C@@H](Cc1ccc(F)c(Br)c1)C(=O)O)c1ccc(I)cc1NS(=O)(=O)c1cccc2nsnc12 [Example 93, (S)-2-[2-(Benzo[1,2,5]thiadiazole-4-sulfonylamino)-4-iodo-benzoylamino]-3-(3-bromo-4-fluoro-phenyl)-propionic acid]	–	–	6.8	8.3
O=C(N[C@H](C(=O)O)C(c1ccc(Cl)cc1)c1ccc(Cl)cc1)c1ccc(I)cc1NS(=O)(=O)c1cccc2nsnc12 [Example 94, (S)-2-[2-(Benzo[1,2,5]thiadiazole-4-sulfonylamino)-4-iodo-benzoylamino]-3,3-bis-(4-chloro-phenyl)-propionic acid]	6310	1000	–	–
CC(C)(c1ccc(Cl)cc1)[C@H](NC(=O)c1ccc(I)cc1NS(=O)(=O)c1cccc2nsnc12)C(=O)O [Example 95, (S)-2-[2-(Benzo[1,2,5]thiadiazole-4-sulfonylamino)-4-iodo-benzoylamino]-3-(4-chloro-phenyl)-3-methyl-butyric acid]	3160	794	–	–
C[C@@H](NC(=O)c1ccc(I)cc1NS(=O)(=O)c1cccc2nsnc12)[C@@H](O)c1ccc(Cl)cc1 [Example 99, 2-(Benzo[1,2,5]thiadiazole-4-sulfonylamino)-N-[(2S,1R)-2-(4-chloro-phenyl)-2-hydroxy-1-methyl-ethyl]-4-iodo-benzamide]	79.4	794	–	–
C[C@@H](NC(=O)c1ccc(I)cc1NS(=O)(=O)c1cccc2nsnc12)[C@@H](O)c1cccc(Br)c1 [Example 101, 2-(Benzo[1,2,5]thiadiazole-4-sulfonylamino)-N-[(2S,1R)-2-(3-bromo-phenyl)-2-hydroxy-1-methyl-ethyl]-4-iodo-benzamide]	39.8	794	–	–
CC(C)(c1ccc(Cl)cc1)[C@H](NC(=O)c1ccc(Cl)cc1NS(=O)(=O)c1cccc2nsnc12)C(=O)O [Example 107, (S)-2-[2-(Benzo[1,2,5]thiadiazole-4-sulfonylamino)-4-chloro-benzoylamino]-3-(4-chloro-phenyl)-3-methyl-butyric acid]	–	794	5.4	–
C[C@@H](NC(=O)c1ccc(Cl)cc1NS(=O)(=O)c1cccc2nsnc12)[C@@H](O)c1cccc(Br)c1 [Example 108, 2-(Benzo[1,2,5]thiadiazole-4-sulfonylamino)-N-[(2S,1R)-2-(3-bromo-phenyl)-2-hydroxy-1-methyl-ethyl]-4-chloro-benzamide]	–	–	7.6	5.9
O=C(N[C@H](Cc1cccc(Br)c1)C(=O)O)c1ccc(I)cc1NS(=O)(=O)c1cccc2nsnc12 [Example 115, (R)-2-[2-(Benzo[1,2,5]thiadiazole-4-sulfonylamino)-4-iodo-benzoylamino]-3-(3-bromo-phenyl)-propionic acid]	398	79.4	–	–
COC(=O)[C@@H](NC(=O)c1ccc(I)cc1NS(=O)(=O)c1c(F)cccc1F)[C@H](C)c1ccc(Cl)c(Cl)c1 [Example 116, (2S,3R)-3-(3,4-Dichloro-phenyl)-2-[2-(2,6-difluoro-benzenesulfonylamino)-4-iodo-benzoylamino]-butyric acid methyl ester]	126	2000	–	–
O=C(N[C@@H](Cc1ccc(Cl)c(Cl)c1)C(=O)O)c1ccc(Cl)cc1NS(=O)(=O)c1c(F)cccc1F [Example 119, (S)-2-[4-Chloro-2-(2,6-difluoro-benzenesulfonylamino)-benzoylamino]-3-(3,4-dichloro-phenyl)-propionic acid]	501	200	–	–
O=C(N[C@H](Cc1ccc(Cl)c(Cl)c1)C(=O)O)c1ccc(Cl)cc1NS(=O)(=O)c1c(F)cccc1F [Example 120, (R)-2-[4-Chloro-2-(2,6-difluoro-benzenesulfonylamino)-benzoylamino]-3-(3,4-dichloro-phenyl)-propionic acid]	79.4	1000	–	–
COC(=O)[C@H](Cc1ccc(Cl)c(Br)c1)NC(=O)c1ccc(I)cc1NS(=O)(=O)c1cccc2nsnc12 [Example 122, (S)-2-[2-(Benzo[1,2,5]thiadiazole-4-sulfonylamino)-4-iodo-benzoylamino]-3-(3-bromo-4-chloro-phenyl)-propionic acid methyl ester]	158	398	–	–
COC(=O)[C@H](Cc1ccc(F)c(Br)c1)NC(=O)c1ccc(I)cc1NS(=O)(=O)c1cccc2nsnc12 [Example 123, (S)-2-[2-(Benzo[1,2,5]thiadiazole-4-sulfonylamino)-4-iodo-benzoylamino]-3-(3-bromo-4-fluoro-phenyl)-propionic acid methyl ester]	100	158	–	–
COC(=O)[C@H](Cc1ccc(F)c(Br)c1)NC(=O)c1ccc(I)cc1NS(=O)(=O)c1cccc2nccnc12 [Example 124, (S)-3-(3-Bromo-4-fluoro-phenyl)-2-[4-iodo-2-(quinoxaline-5-sulfonylamino)-benzoylamino]-propionic acid methyl ester]	316	50.1	–	–
COC(=O)[C@H](Cc1ccc(F)c(Br)c1)NC(=O)c1ccc(I)cc1NS(=O)(=O)c1c(F)cccc1F [Example 125, (S)-3-(3-Bromo-4-fluoro-phenyl)-2-[2-(2,6-difluoro-benzenesulfonylamino)-4-iodo-benzoylamino]-propionic acid methyl ester]	316	631	–	–
O=C(N[C@@H](Cc1ccc(F)c(Br)c1)C(=O)O)c1ccc(I)cc1NS(=O)(=O)c1cccc2nccnc12 [Example 126, (S)-3-(3-Bromo-4-fluoro-phenyl)-2-[4-iodo-2-(quinoxaline-5-sulfonylamino)-benzoylamino]-propionic acid]	251	5.01	–	–
O=C(N[C@@H](Cc1ccc(F)c(Br)c1)C(=O)O)c1ccc(I)cc1NS(=O)(=O)c1c(F)cccc1F [Example 127, (S)-3-(3-Bromo-4-fluoro-phenyl)-2-[2-(2,6-difluoro-benzenesulfonylamino)-4-iodo-benzoylamino]-propionic acid]	200	79.4	–	–
O=C(N[C@@H](Cc1ccc(Cl)c(Cl)c1)C(=O)NCc1cccc(Cl)c1)c1ccc(Cl)cc1NS(=O)(=O)c1cccc2nsnc12 [Example 128, (S)-2-(Benzo[1,2,5]thiadiazole-4-sulfonylamino)-4-chloro-N-[1-(3-chloro-benzylcarbamoyl)-2-(3,4-dichloro-phenyl)-ethyl]-benzamide]	100	631	–	–
